pIC50: −log10 of the molar value.
Experiments:
[1] = target: cannabinoid CB1 receptors; experiment: in vitro affinity for cannabinoid CB1 receptors (Rinaldi-Carmona et al., FEBS Letters 1994); format: binding; settings: conditions of Rinaldi-Carmona et al., FEBS Letters, 1994, 350, 240-244
Chain of cannabinoid CB1 receptors (P21554 whole entry): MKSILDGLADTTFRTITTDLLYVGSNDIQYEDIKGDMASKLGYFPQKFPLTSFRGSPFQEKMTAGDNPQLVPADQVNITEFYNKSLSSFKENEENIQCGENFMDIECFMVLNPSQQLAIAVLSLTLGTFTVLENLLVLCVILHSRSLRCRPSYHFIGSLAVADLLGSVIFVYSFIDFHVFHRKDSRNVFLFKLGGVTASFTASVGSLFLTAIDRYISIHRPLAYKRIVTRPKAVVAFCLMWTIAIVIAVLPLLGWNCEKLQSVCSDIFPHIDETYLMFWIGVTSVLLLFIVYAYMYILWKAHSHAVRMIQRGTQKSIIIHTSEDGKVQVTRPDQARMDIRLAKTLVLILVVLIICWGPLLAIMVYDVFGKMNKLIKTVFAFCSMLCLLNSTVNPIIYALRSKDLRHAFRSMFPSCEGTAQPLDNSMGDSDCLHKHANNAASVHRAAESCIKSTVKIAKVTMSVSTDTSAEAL

In the case of `CCc1c(C(=O)NN2CCC(O)CC2)nn(-c2ccc(Cl)cc2Cl)c1-c1ccc(Br)cc1` [compound of formula (I), 5-(4-Bromophenyl)-1-(2,4-dichlorophenyl)-4-ethyl-N-(hydroxypiperidin-1-yl)-1H-pyrazole-3-carboxamide], the toxicity (toxicity) was “compatible with its use as a medicinal product” and the pIC50 [1] was 7.49.
